Values of other authors, collected in US20220241364A1, “Composition for Lowering Blood Glucose Level, Reducing Blood Hemoglobin A1c Content, or Increasing Blood HDL-Cholesterol Content” (House Wellness Foods Corporation, priority 2019, published 2022).

Settings: in vivo

For `CC(C)=CC(=O)C[C@H](C)c1ccc(C)cc1` [ar turmerone], the “elevation of blood sugar level” value is given as “effect of inhibiting the elevation”.
